# Results published in US20230416248A1, “COMPOUNDS AND USES THEREOF” (Foghorn Therapeutics Inc., priority 2020, published 2023).
# How the values were obtained:
# [1] = system: Uveal melanoma cell lines, 92-1 or MP41; assay: 3-day growth inhibition compared with clinical PKC and MEK inhibitors, Compound A (Example 8); format: cell-based; conditions: FIG. 2A and 2B
# Procedure: Procedure: Uveal melanoma cell lines, 92-1 or MP41, were plated in 96 well plates in the presence of growth media (see Table 5). […] Cells were incubated at 37 degrees Celsius for 3 days. After three days of treatment, cell growth was measured with Cell-titer glow (Promega), and luminescence was read on an Envision plate reader (Perkin Elmer).
# parental MP41 cells = assay: 7-day growth inhibition assay, parental cells (Example 14); format: cell-based; conditions: FIG. 7B, 7-day assay
# Procedure: (§1) Procedure: MP41 uveal melanoma cells were made resistant to the PKC inhibitor (LXS196; MedChemExpress), by long-term culture in growth media (see Table 6) containing increasing concentrations of the compound, up to 1 micromolar. After 3 months, sensitivity of the parental MP41 cells and the PKC inhibitor (PKCi)-resistant cells to the PKC inhibitor (LXS196) or the BRG1/BRM ATPase inhibitor (Compound B) was tested in a 7-day growth inhibition assay as described above in Example 9.
# [2] = system: Uveal melanoma cell lines (92-1, MP41, MP38, MP46) and Non-small cell lung cancer cells (NCIH1299); assay: 3-day cell growth, Cell-titer glow (Example 12); format: cell-based; conditions: FIG. 5, 3 days, 0 to 10 micromolar
# Procedure: Procedure: Uveal melanoma cell lines (92-1, MP41, MP38, MP46) and Non-small cell lung cancer cells (NCIH1299) were plated into 96 well plates with growth media (see Table 6). BRG1/BRM ATPase inhibitor, compound 67, was dissolved in DMSO and added to the cells in a concentration gradient from 0 to 10 micromolar at the time of plating. Cells were incubated at 37° C. for 3 days. After three days of treatment, cell growth was measured with Cell-titer glow (Promega), and luminescence was read on an Envision plate reader (Perkin Elmer).
# [3] = system: PKC inhibitor (PKCi)-resistant MP41 uveal melanoma cells; assay: 7-day growth inhibition assay, PKC inhibitor-resistant cells (Example 14); format: cell-based
# Procedure: as §1
# [4] = system: Uveal melanoma cell lines, 92-1 or MP41; assay: 3-day growth inhibition compared with clinical PKC and MEK inhibitors, Compound B (Example 13); format: cell-based; conditions: FIG. 6A and 6B
# Procedure: Procedure: Uveal melanoma cell lines, 92-1 or MP41, were plated in 96 well plates in the presence of growth media (see Table 6). BAF ATPase inhibitor (Compound B), PKC inhibitor (LXS196; MedChemExpress), and MEK Inhibitor (Selumetinib; Selleck Chemicals) were dissolved in DMSO and added to the cells in a concentration gradient from 0 to 10 micromolar at the time of plating. Cells were incubated at 37° C. for 3 days. After three days of treatment, cell growth was measured with Cell-titer glow (Promega), and luminescence was read on an Envision plate reader (Perkin Elmer).
# [5] = Body weight and tolerability in mice engrafted with 92-1 tumors (Example 16); format: in vivo; conditions: all treatments, once daily oral gavage, 3 weeks, FIG. 8C
# Procedure: Procedure: Nude mice (Envigo) were engrafted subcutaneously in the axillary region with 5×10^6 92-1 uveal melanoma cells in 50% Matrigel. Tumors were grown to a mean of ˜200 mm^3, at which point mice were grouped and dosing was initiated. Mice were dosed once daily by oral gavage with vehicle (20% 2-Hydroxypropyl-[…]) or increasing doses of Compound C. Tumor volumes and body weights were measured over the course of 3 weeks, and doses were adjusted by body weight to achieve the proper dose in terms of mg/kg. At this time, animals were sacrificed, and tumors were dissected and imaged.
compound,measurement,setting,value
CSCC[C@H](NC(=O)c1ccc(N)cc1)C(=O)Nc1nc(-c2cccc(-c3ccncc3)c2)cs1 [Compound A],onset of inhibition versus the clinical PKC and MEK inhibitors,[1],faster onset of inhibition
same,growth inhibition of uveal melanoma cells versus the clinical PKC and MEK inhibitors,"[1]; 3 days, 0 to 10 micromolar",comparable growth inhibition
"CSCC[C@H](NC(=O)c1ccn(S(C)(=O)=O)c1)C(=O)Nc1nc(-c2cccc(-c3ccncc3)c2)cs1 [Compound B, (S)-1-(methylsulfonyl)-N-(4-(methylthio)-1-oxo-1-((4-(3-(pyridin-4-yl)phenyl)thiazol-2-yl)amino)butan-2-yl)-1H-pyrrole-3-carboxamide]",growth inhibition of parental cell line,parental MP41 cells,strong growth inhibition
same,growth inhibition in the uveal melanoma cell lines,[2],potent growth inhibition
same,sensitivity of PKCi-resistant cells versus the parental MP41 cells,[3]; FIG. 7B,more sensitive
same,growth inhibition of PKCi-resistant cell line,"[3]; FIG. 7B, 7-day assay",strong growth inhibition
same,onset of growth inhibition versus the clinical PKC and MEK inhibitors,[4],faster onset of growth inhibition
same,growth inhibition of uveal melanoma cells versus the clinical PKC and MEK inhibitors,"[4]; 3 days, 0 to 10 micromolar",more potent effects on growth inhibition
"C[C@@H]1CN(c2cccc(-c3csc(NC(=O)CNC(=O)c4ccn(C(C)(C)C)c4)n3)n2)C[C@H](C)O1 [Compound C, 1-(tert-butyl)-N-(2-((4-(6-(cis-2,6-dimethylmorpholino)pyridin-2-yl)thiazol-2-yl)amino)-2-oxoethyl)-1H-pyrrole-3-carboxamide]","tolerability, body weight",[5],well tolerated with no body weight loss observed
"CC1(N)CCN(c2cccnc2NC(=O)c2nc(-c3ncccc3C(F)(F)F)cnc2N)CC1 [LXS196, reference compound]",tolerance of PKCi-resistant cells versus the parental MP41 cell line,[3]; FIG. 7A,could tolerate growth at higher concentrations
